Reference: patent US11535611B2, “Pyrazolo[3,4-B]pyridines and imidazo[1,5-B]pyridazines as PDE1 inhibitors” (H. Lundbeck A/S, priority 2017, dated 2022)

How the values were obtained:
Format in all cases: biochemical
PDE1C = PDE1C (Homo sapiens (Human), UniProt Q14123); assay: PDE1 inhibition assay, PDE1C; conditions: for IC50: 15 nM tritium labelled cAMP, 1 hr at room temperature, SPA beads, read-out: PDE1 C, IC50; for inhibition at 10 µM: @ 10 μM compound, read-out: PDE1 C, % inhibition @ 10 μM; for inhibition at 1 µM: @ 1 μM compound, read-out: PDE1 C, % inhibition @ 1 μM
Protocol: (§1) PDE1A, PDE1B and PDE1C assays were performed as follows: the assays were performed in 60 μL samples containing a fixed amount of the PDE1 enzyme (sufficient to convert 20-25% of the cyclic nucleotide substrate), a buffer (50 mM HEPES (4-(2-hydroxyethyl)-1-piperazineethanesulfonic acid) pH 7.6; 10 mM MgCl2; 0.02% Tween20), 0.1 mg/ml BSA (bovine serum albumin), 15 nM tritium labelled cAMP and varying amounts of inhibitors. Reactions were initiated by addition of the cyclic nucleotide substrate, and reactions were allowed to proceed for 1 hr at room temperature before being terminated through mixing with 20 μL (0.2 mg) yttrium silicate SPA beads (PerkinElmer). The beads were allowed to settle for 1 hour in the dark before the plates were counted in a Wallac 1450 Microbeta counter. The measured signals were converted to activity relative to an uninhibited control (100%) and IC50 values were calculated using XIFit (model 205, IDBS).

PDE1B = PDE1B (Homo sapiens (Human), UniProt Q01064); assay: PDE1 inhibition assay, PDE1B; conditions: for IC50: 15 nM tritium labelled cAMP, 1 hr at room temperature, SPA beads, read-out: PDE1 B, IC50
Protocol: as §1

PDE1A = PDE1A (Homo sapiens (Human), UniProt P54750); assay: PDE1 inhibition assay, PDE1A; conditions: for inhibition at 10 µM: @ 10 μM compound; for IC50: 15 nM tritium labelled cAMP, 1 hr at room temperature, SPA beads; for inhibition at 1 µM: @ 1 μM compound
Protocol: as §1

Sequence of PDE1B (Q01064 whole entry): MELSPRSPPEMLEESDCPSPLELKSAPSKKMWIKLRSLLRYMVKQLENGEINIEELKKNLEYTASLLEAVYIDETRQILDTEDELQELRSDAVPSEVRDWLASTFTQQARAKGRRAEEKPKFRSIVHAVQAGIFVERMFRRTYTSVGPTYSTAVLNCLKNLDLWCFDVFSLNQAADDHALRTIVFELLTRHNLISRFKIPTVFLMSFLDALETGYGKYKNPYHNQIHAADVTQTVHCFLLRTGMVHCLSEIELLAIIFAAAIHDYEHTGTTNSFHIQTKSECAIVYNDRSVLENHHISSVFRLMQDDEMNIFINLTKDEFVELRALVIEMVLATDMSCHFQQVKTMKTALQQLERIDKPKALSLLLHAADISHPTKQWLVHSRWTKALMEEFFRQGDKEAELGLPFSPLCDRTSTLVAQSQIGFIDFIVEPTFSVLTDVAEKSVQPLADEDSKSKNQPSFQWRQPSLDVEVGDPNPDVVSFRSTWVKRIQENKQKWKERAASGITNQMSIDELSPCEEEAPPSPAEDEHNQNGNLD
Sequence of PDE1A (P54750 whole entry): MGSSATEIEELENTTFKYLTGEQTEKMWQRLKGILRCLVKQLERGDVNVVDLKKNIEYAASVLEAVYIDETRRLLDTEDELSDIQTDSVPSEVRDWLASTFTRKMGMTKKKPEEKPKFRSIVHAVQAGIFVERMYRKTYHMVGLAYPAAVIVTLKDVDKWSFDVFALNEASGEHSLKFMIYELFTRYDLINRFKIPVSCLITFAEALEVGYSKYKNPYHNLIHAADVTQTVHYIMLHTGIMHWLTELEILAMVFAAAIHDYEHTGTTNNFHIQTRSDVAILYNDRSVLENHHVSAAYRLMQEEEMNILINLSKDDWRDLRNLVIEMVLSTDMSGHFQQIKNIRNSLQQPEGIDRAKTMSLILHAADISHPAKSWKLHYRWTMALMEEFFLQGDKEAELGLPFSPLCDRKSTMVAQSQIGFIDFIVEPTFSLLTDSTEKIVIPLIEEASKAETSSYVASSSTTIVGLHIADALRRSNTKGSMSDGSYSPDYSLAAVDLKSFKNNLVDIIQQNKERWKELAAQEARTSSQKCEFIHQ
Sequence of PDE1C (Q14123 whole entry): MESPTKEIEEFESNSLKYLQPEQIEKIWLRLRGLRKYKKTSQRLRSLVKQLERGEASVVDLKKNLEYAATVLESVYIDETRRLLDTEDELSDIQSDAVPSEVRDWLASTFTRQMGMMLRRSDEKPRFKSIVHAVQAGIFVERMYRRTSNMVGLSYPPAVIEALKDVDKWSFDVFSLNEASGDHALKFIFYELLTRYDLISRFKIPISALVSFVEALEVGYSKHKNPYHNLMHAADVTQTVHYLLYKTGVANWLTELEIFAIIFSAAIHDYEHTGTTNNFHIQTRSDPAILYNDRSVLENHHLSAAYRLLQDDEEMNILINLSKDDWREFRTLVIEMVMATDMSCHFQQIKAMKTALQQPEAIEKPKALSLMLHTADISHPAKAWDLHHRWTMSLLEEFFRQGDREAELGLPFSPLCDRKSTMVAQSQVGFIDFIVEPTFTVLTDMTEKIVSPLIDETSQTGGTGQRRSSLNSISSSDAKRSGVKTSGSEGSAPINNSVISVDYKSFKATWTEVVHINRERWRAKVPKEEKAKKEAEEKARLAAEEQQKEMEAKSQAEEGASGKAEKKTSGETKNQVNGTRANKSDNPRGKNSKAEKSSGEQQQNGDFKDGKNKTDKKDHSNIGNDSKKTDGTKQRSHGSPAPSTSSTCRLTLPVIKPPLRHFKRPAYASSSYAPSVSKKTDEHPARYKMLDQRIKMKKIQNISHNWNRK

| Compound | IC50 (PDE1C) [µM] | IC50 (PDE1B) [µM] | inhibition at 10 µM (PDE1A) [%] | inhibition at 10 µM (PDE1C) [%] | IC50 (PDE1A) [µM] | inhibition at 10 µM (PDE1B; @ 10 μM compound, read-out: PDE1 B, % inhibition @ 10 μM) [%] | inhibition at 1 µM (PDE1C) [%] | inhibition at 1 µM (PDE1A) [%] |
| --- | --- | --- | --- | --- | --- | --- | --- | --- |
| COc1ncc(C#N)cc1-c1cc(N[C@@H]2CCOC2)c2c(cnn2C(C)C)n1 [Example 54, 5-[1-isopropyl-7-[[(3R)-tetrahydrofuran-3-yl]amino]pyrazolo[4,3-b]pyridin-5-yl]-6-methoxy-pyridine-3-carbonitrile] | 2.4 | 1.53 | 59 | – | – | – | – | – |
| CCOc1ncc(C#N)cc1-c1cc(N[C@@H]2CCOC2)c2c(cnn2C(C)C)n1 [Example 55, 6-ethoxy-5-[1-isopropyl-7-[[(3R)-tetrahydrofuran-3-yl]amino]pyrazolo[4,3-b]pyridin-5-yl]pyridine-3-carbonitrile] | 2.5 | 1.38 | 69 | – | – | – | – | – |
| CCc1ncccc1-c1cc(N[C@@H]2CCOC2)c2c(cnn2C(C)C)n1 [Example 56, 5-(2-ethyl-3-pyridyl)-1-isopropyl-N-[(3R)-tetrahydrofuran-3-yl]pyrazolo[4,3-b]pyridin-7-amine] | – | 1.53 | 51 | 59 | – | – | – | – |
| COc1ccc(Cc2cc(N[C@@H]3CCOC3)c3c(cnn3C(C)C)n2)cc1 [Example 57, 1-isopropyl-5-[(4-methoxyphenyl)methyl]-N-[(3R)-tetrahydrofuran-3-yl]pyrazolo[4,3-b]pyridin-7-amine] | 0.506 | 0.303 | – | – | 0.874 | – | – | – |
| COCc1ncccc1-c1cc(N[C@@H]2CCOC2)c2c(cnn2C(C)C)n1 [Example 58, 1-isopropyl-5-[2-(methoxymethyl)-3-pyridyl]-N-[(3R)-tetrahydrofuran-3-yl]pyrazolo[4,3-b]pyridin-7-amine] | – | 2.19 | 52 | 31 | – | – | – | – |
| CCOc1ncccc1-c1ccc2c(n1)c(C)nn2C(C)C [Example 59, 5-(2-ethoxy-3-pyridyl)-1-isopropyl-3-methyl-pyrazolo[4,3-b]pyridine] | 0.18 | 0.026 | – | – | 0.052 | – | – | – |
| Cc1cc2c(nc1-c1ccccc1)c(C)nn2C(C)C [Example 60, 1-isopropyl-3,6-dimethyl-5-phenyl-pyrazolo[4,3-b]pyridine] | 0.198 | 0.122 | – | – | 0.225 | – | – | – |
| COc1ncccc1-c1nc2c(C)nn(C(C)C)c2cc1C [Example 61, 1-isopropyl-5-(2-methoxy-3-pyridyl)-3,6-dimethyl-pyrazolo[4,3-b]pyridine] | 0.236 | 0.084 | – | – | 0.288 | – | – | – |
| COc1ccccc1-c1nc2c(C)nn(C(C)C)c2cc1C [Example 62, 1-isopropyl-5-(2-methoxyphenyl)-3,6-dimethyl-pyrazolo[4,3-b]pyridine] | 0.568 | 0.159 | – | – | 0.694 | – | – | – |
| CCOc1ncccc1-c1nc2c(C)nn(C(C)C)c2cc1C [Example 63, 5-(2-ethoxy-3-pyridyl)-1-isopropyl-3,6-dimethyl-pyrazolo[4,3-b]pyridine] | 0.175 | 0.016 | – | – | 0.086 | – | – | – |
| CCCOc1ncccc1-c1nc2c(C)nn(C(C)C)c2cc1C [Example 64, 1-isopropyl-3,6-dimethyl-5-(2-propoxy-3-pyridyl)pyrazolo[4,3-b]pyridine] | 0.22 | 0.025 | – | – | 0.118 | – | – | – |
| CCOc1ncccc1-c1cc(NC)c2c(n1)c(C)nn2C(C)C [Example 65, 5-(2-ethoxy-3-pyridyl)-1-isopropyl-N,3-dimethyl-pyrazolo[4,3-b]pyridin-7-amine] | 0.111 | 0.007 | – | – | 0.05 | – | – | – |
| CCNc1cc(-c2cccnc2OCC)nc2c(C)nn(C(C)C)c12 [Example 66, 5-(2-ethoxy-3-pyridyl)-N-ethyl-1-isopropyl-3-methyl-pyrazolo[4,3-b]pyridin-7-amine] | 0.161 | 0.005 | – | – | 0.06 | – | – | – |
| CCOc1ncccc1-c1cc(NCC2CC(=O)N(C)C2)c2c(n1)c(C)nn2C(C)C (stereo not drawn) [Example 68, 4-[[[5-(2-ethoxy-3-pyridyl)-1-isopropyl-3-methyl-pyrazolo[4,3-b]pyridin-7-yl]amino]methyl]-1-methyl-pyrrolidin-2-one] | 0.088 | 0.012 | – | – | 0.053 | – | – | – |
| CCOc1ncccc1-c1cc(N)c2c(n1)c(C)nn2C(C)C [Example 69, 5-(2-ethoxy-3-pyridyl)-1-isopropyl-3-methyl-pyrazolo[4,3-b]pyridin-7-amine] | 0.129 | 0.013 | – | – | 0.062 | – | – | – |
| CCOc1ncccc1-c1ccc2c(cnn2C(C)C)n1 [Example 70, 5-(2-ethoxy-3-pyridyl)-1-isopropyl-pyrazolo[4,3-b]pyridine] | 2.17 | 0.099 | – | – | 0.836 | – | – | – |
| CCOc1ncccc1-c1nc2c(C)nc(C(C)C)n2cc1C [Example 71, 2-(2-ethoxy-3-pyridyl)-6-isopropyl-3,8-dimethyl-imidazo[1,5-a]pyrimidine] | 0.099 | 0.017 | – | – | 0.074 | – | – | – |
| CCOc1ncccc1-c1ccn2c(C(C)C)nc(C)c2n1 [Example 72, 2-(2-ethoxy-3-pyridyl)-6-isopropyl-8-methyl-imidazo[1,5-a]pyrimidine] | 0.213 | 0.034 | – | – | 0.096 | – | – | – |
| CCOc1ncccc1-c1ccn2c(C3CCC3)nc(C)c2n1 [Example 73, 6-cyclobutyl-2-(2-ethoxy-3-pyridyl)-8-methyl-imidazo[1,5-a]pyrimidine] | 2.09 | 0.296 | – | – | 1.55 | – | – | – |
| CCOc1ncccc1-c1ccn2c(C3CC3)nc(C)c2n1 [Example 74, 6-cyclopropyl-2-(2-ethoxy-3-pyridyl)-8-methyl-imidazo[1,5-a]pyrimidine] | 1.18 | 0.121 | – | – | 0.394 | – | – | – |
| CCOc1ncccc1-c1ccn2c(C3(C)COC3)nc(C)c2n1 [Example 77, 2-(2-ethoxy-3-pyridyl)-8-methyl-6-(3-methyloxetan-3-yl)imidazo[1,5-a]pyrimidine] | 0.73 | 0.239 | – | – | 0.448 | – | – | – |
| CCOc1ncccc1-c1ccn2c(CC(F)(F)F)nc(C)c2n1 [Example 78, 2-(2-ethoxy-3-pyridyl)-8-methyl-6-(2,2,2-trifluoroethyl)imidazo[1,5-a]pyrimidine] | 0.717 | 0.207 | – | – | 0.321 | – | – | – |
| CCOc1ncccc1-c1ccn2c(C3COC3)nc(C)c2n1 [Example 79, 2-(2-ethoxy-3-pyridyl)-8-methyl-6-(oxetan-3-yl)imidazo[1,5-a]pyrimidine] | 0.632 | 0.078 | – | – | 0.406 | – | – | – |
| CCOc1ncccc1-c1ccn2c(C3CCCC3)nc(C)c2n1 [Example 80, 6-cyclopentyl-2-(2-ethoxy-3-pyridyl)-8-methyl-imidazo[1,5-a]pyrimidine] | 2.29 | 0.591 | – | – | 3.23 | – | – | – |
| CCOc1ncccc1-c1ccn2c(C(C)(C)C)nc(C)c2n1 [Example 82, 6-tert-butyl-2-(2-ethoxy-3-pyridyl)-8-methyl-imidazo[1,5-a]pyrimidine] | – | – | 29 | 28 | – | 54 | – | – |
| CCOc1ncccc1-c1cc(N2CC[C@@H](OC)C2)c2c(cnn2C)n1 [Example 85, 5-(2-ethoxy-3-pyridyl)-7-[(3R)-3-methoxypyrrolidin-1-yl]-1-methyl-pyrazolo[4,3-b]pyridine] | – | 0.536 | – | – | – | – | 56 | 23 |
| CCOc1ncccc1-c1cc(N[C@@H]2CCC[C@H]2OC)c2c(cnn2C)n1 [Example 86, 5-(2-ethoxy-3-pyridyl)-N-[(1R,2R)-2-methoxycyclopentyl]-1-methyl-pyrazolo[4,3-b]pyridin-7-amine] | – | 0.536 | – | – | – | – | 20 | 22 |
| CCOc1ncccc1-c1cc(NC2CCC(OC)C2)c2c(cnn2C)n1 (stereo not drawn) [Example 88, 5-(2-ethoxy-3-pyridyl)-N-(3-methoxycyclopentyl)-1-methyl-pyrazolo[4,3-b]pyridin-7-amine] | – | 0.311 | – | – | – | – | 47 | 16 |
